Assay results taken from PubChem BioAssay AID1259407 (Chemical Carcinogenesis Research Information System (CCRIS), 2018).
Calls of active or inactive are those of the source. How the calls were made is not given here.

Test system: CCRIS mutagenicity, Ames/micronucleus/aberration tests
Test: CCRIS mutagenicity studies
[1] = Test System: AMES SALMONELLA TYPHIMURIUM, Strain/Indicator: TA98, Metabolic Activation: NONE, Method: STANDARD PLATE
[2] = Test System: AMES SALMONELLA TYPHIMURIUM, Strain/Indicator: TA100, Metabolic Activation: NONE, Method: STANDARD PLATE
[3] = Test System: AMES SALMONELLA TYPHIMURIUM, Strain/Indicator: TA100, Metabolic Activation: RAT, LIVER, S-9, AROCLOR 1254, Method: STANDARD PLATE
[4] = Test System: AMES SALMONELLA TYPHIMURIUM, Strain/Indicator: TA102, Metabolic Activation: NONE, Method: PREINCUBATION
[5] = Test System: AMES SALMONELLA TYPHIMURIUM, Strain/Indicator: TA104, Metabolic Activation: NONE, Method: STANDARD PLATE

O=Cc1ccco1
mutagenic call (Test System: AMES SALMONELLA TYPHIMURIUM, Strain/Indicator: TA97, Metabolic Activation: NONE, Method: PREINCUBATION): inactive; negative
mutagenic call (Test System: AMES SALMONELLA TYPHIMURIUM, Strain/Indicator: TA97, Metabolic Activation: RAT, LIVER, S-9, AROCLOR 1254, Method: PREINCUBATION): inactive; negative
mutagenic call (Test System: AMES SALMONELLA TYPHIMURIUM, Strain/Indicator: TA98, Metabolic Activation: HAMSTER, LIVER, S-9, AROCLOR 1254 (10%), Method: PREINCUBATION): inactive; negative
mutagenic call (Test System: AMES SALMONELLA TYPHIMURIUM, Strain/Indicator: TA98, Metabolic Activation: HAMSTER, LIVER, S-9, AROCLOR 1254, Method: PREINCUBATION): inactive; negative
mutagenic call [1]: inactive; negative
mutagenic call (Test System: AMES SALMONELLA TYPHIMURIUM, Strain/Indicator: TA98, Metabolic Activation: RAT LIVER S-9, PHENOBARBITAL AND BETA-NAPHTHOFLAVONE, Method: PREINCUBATION): inactive; negative
mutagenic call (Test System: AMES SALMONELLA TYPHIMURIUM, Strain/Indicator: TA98, Metabolic Activation: RAT, LIVER, S-9, AROCLOR 1254 (10%), Method: PREINCUBATION): inactive; negative
mutagenic call (Test System: AMES SALMONELLA TYPHIMURIUM, Strain/Indicator: TA98, Metabolic Activation: RAT, LIVER, S-9, AROCLOR 1254, Method: PREINCUBATION): inactive; negative
mutagenic call (Test System: AMES SALMONELLA TYPHIMURIUM, Strain/Indicator: TA98, Metabolic Activation: S-9, Method: STANDARD PLATE): inactive; negative
mutagenic call (Test System: AMES SALMONELLA TYPHIMURIUM, Strain/Indicator: TA100, Metabolic Activation: HAMSTER, LIVER, S-9, AROCLOR 1254 (10%), Method: PREINCUBATION): inactive; negative
mutagenic call (Test System: AMES SALMONELLA TYPHIMURIUM, Strain/Indicator: TA100, Metabolic Activation: HAMSTER, LIVER, S-9, AROCLOR 1254, Method: PREINCUBATION): inactive; negative
mutagenic call [2]: inactive; negative
mutagenic call (Test System: AMES SALMONELLA TYPHIMURIUM, Strain/Indicator: TA100, Metabolic Activation: RAT LIVER S-9, AROCLOR 1254, Method: PREINCUBATION): inactive; negative
mutagenic call (Test System: AMES SALMONELLA TYPHIMURIUM, Strain/Indicator: TA100, Metabolic Activation: RAT LIVER S-9, PHENOBARBITAL AND BETA-NAPHTHOFLAVONE, Method: PREINCUBATION): inactive; negative
mutagenic call (Test System: AMES SALMONELLA TYPHIMURIUM, Strain/Indicator: TA100, Metabolic Activation: RAT, LIVER, S-9, AROCLOR 1254 (10%), Method: PREINCUBATION): inactive; negative
mutagenic call (Test System: AMES SALMONELLA TYPHIMURIUM, Strain/Indicator: TA100, Metabolic Activation: RAT, LIVER, S-9, AROCLOR 1254, Method: PREINCUBATION): inactive; negative
mutagenic call [3]: active; positive
mutagenic call (Test System: AMES SALMONELLA TYPHIMURIUM, Strain/Indicator: TA102, Metabolic Activation: MOUSE LIVER S-9, AROCLOR 1254, Method: PREINCUBATION): inactive; negative
mutagenic call [4]: inactive; negative
mutagenic call (Test System: AMES SALMONELLA TYPHIMURIUM, Strain/Indicator: TA102, Metabolic Activation: RAT, LIVER, S-9, AROCLOR 1254, Method: PREINCUBATION): inactive; negative
mutagenic call (Test System: AMES SALMONELLA TYPHIMURIUM, Strain/Indicator: TA104, Metabolic Activation: MOUSE LIVER S-9, AROCLOR 1254, Method: PREINCUBATION): inactive; negative
mutagenic call (Test System: AMES SALMONELLA TYPHIMURIUM, Strain/Indicator: TA1535, Metabolic Activation: HAMSTER, LIVER, S-9, AROCLOR 1254 (10%), Method: PREINCUBATION): inactive; negative
mutagenic call (Test System: AMES SALMONELLA TYPHIMURIUM, Strain/Indicator: TA1535, Metabolic Activation: HAMSTER, LIVER, S-9, AROCLOR 1254, Method: PREINCUBATION): inactive; negative
mutagenic call (Test System: AMES SALMONELLA TYPHIMURIUM, Strain/Indicator: TA1535, Metabolic Activation: NONE, Method: PREINCUBATION): inactive; negative
mutagenic call (Test System: AMES SALMONELLA TYPHIMURIUM, Strain/Indicator: TA1535, Metabolic Activation: RAT LIVER S-9, PHENOBARBITAL AND BETA-NAPHTHOFLAVONE, Method: PREINCUBATION): inactive; negative
mutagenic call (Test System: AMES SALMONELLA TYPHIMURIUM, Strain/Indicator: TA1535, Metabolic Activation: RAT, LIVER, S-9, AROCLOR 1254 (10%), Method: PREINCUBATION): inactive; negative
mutagenic call (Test System: AMES SALMONELLA TYPHIMURIUM, Strain/Indicator: TA1535, Metabolic Activation: RAT, LIVER, S-9, AROCLOR 1254, Method: PREINCUBATION): inactive; negative
mutagenic call (Test System: AMES SALMONELLA TYPHIMURIUM, Strain/Indicator: TA1537, Metabolic Activation: HAMSTER, LIVER, S-9, AROCLOR 1254 (10%), Method: PREINCUBATION): inactive; negative
mutagenic call (Test System: AMES SALMONELLA TYPHIMURIUM, Strain/Indicator: TA1537, Metabolic Activation: HAMSTER, LIVER, S-9, AROCLOR 1254, Method: PREINCUBATION): inactive; negative
mutagenic call (Test System: AMES SALMONELLA TYPHIMURIUM, Strain/Indicator: TA1537, Metabolic Activation: NONE, Method: PREINCUBATION): inactive; negative
mutagenic call (Test System: AMES SALMONELLA TYPHIMURIUM, Strain/Indicator: TA1537, Metabolic Activation: RAT LIVER S-9, PHENOBARBITAL AND BETA-NAPHTHOFLAVONE, Method: PREINCUBATION): inactive; negative
mutagenic call (Test System: AMES SALMONELLA TYPHIMURIUM, Strain/Indicator: TA1537, Metabolic Activation: RAT, LIVER, S-9, AROCLOR 1254 (10%), Method: PREINCUBATION): inactive; negative
mutagenic call (Test System: AMES SALMONELLA TYPHIMURIUM, Strain/Indicator: TA1537, Metabolic Activation: RAT, LIVER, S-9, AROCLOR 1254, Method: PREINCUBATION): inactive; negative
mutagenic call (Test System: E.COLI, Strain/Indicator: WP2UVRA, Metabolic Activation: NONE, Method: PREINCUBATION): inactive; negative
mutagenic call (Test System: E.COLI, Strain/Indicator: WP2UVRA, Metabolic Activation: RAT LIVER S-9, PHENOBARBITAL AND BETA-NAPHTHOFLAVONE, Method: PREINCUBATION): inactive; negative
mutagenic call (Test System: MOUSE LYMPHOMA, Strain/Indicator: L5178Y (TK+/TK-), Metabolic Activation: NONE, Method: SUSPENSION/PLATE): active; positive

CC(CCl)OC(C)CCl (centres undefined)
mutagenic call (End Point: IN VITRO CHROMOSOMAL ABERRATIONS, Test System: CHINESE HAMSTER OVARY CELLS, Metabolic Activation: NONE): inactive; negative; precipitation occurred at all doses
mutagenic call (End Point: IN VITRO CHROMOSOMAL ABERRATIONS, Test System: CHINESE HAMSTER OVARY CELLS, Metabolic Activation: RAT, LIVER, S-9, AROCLOR 1254): active; positive; precipitation occurred at 497, 730 and 993 ug/ml

Cc1c(N)nc(C(CC(N)=O)NCC(N)C(N)=O)nc1C(=O)NC(C(=O)NC(C)C(O)C(C)C(=O)NC(C(=O)NCCc1nc(-c2nc(C(=O)NCCCCN(CCCCN=C(N)N)C(=N)N)cs2)cs1)C(C)O)C(OC1OC(CO)C(O)C(O)C1OC1OC(CO)C(O)C(OC(N)=O)C1O)c1cnc[nH]1 (centres undefined)
mutagenic call [4]: active; positive

CN(C)c1ccc(C(=C2C=CC(=[N+](C)C)C=C2)c2ccc(N(C)C)cc2)cc1
mutagenic call (Test System: AMES SALMONELLA TYPHIMURIUM, Strain/Indicator: TA97, Metabolic Activation: NONE, Method: STANDARD PLATE): inactive; negative
mutagenic call [1]: inactive; negative
mutagenic call (Test System: AMES SALMONELLA TYPHIMURIUM, Strain/Indicator: TA98, Metabolic Activation: RAT, LIVER, S-9, AROCLOR 1254, Method: STANDARD PLATE): inactive; negative
mutagenic call [2]: inactive; negative
mutagenic call [3]: inactive; negative
mutagenic call [5]: inactive; negative
mutagenic call (Test System: AMES SALMONELLA TYPHIMURIUM, Strain/Indicator: TA1535, Metabolic Activation: NONE, Method: STANDARD PLATE): inactive; negative
mutagenic call (Test System: AMES SALMONELLA TYPHIMURIUM, Strain/Indicator: TA1535, Metabolic Activation: RAT, LIVER, S-9, AROCLOR 1254, Method: STANDARD PLATE): inactive; negative
mutagenic call (Test System: CHINESE HAMSTER OVARY, Strain/Indicator: CHO-AS52 (GPT)/6-THIOGUANINE, Metabolic Activation: RAT, LIVER, S-9, AROCLOR 1254): inactive; negative
mutagenic call (Test System: CHINESE HAMSTER OVARY, Strain/Indicator: CHO-K1-BH4 (HPRT)/6-THIOGUANINE, Metabolic Activation: NONE): inactive; negative
mutagenic call (Test System: CHINESE HAMSTER OVARY, Strain/Indicator: CHO-K1-BH4 (HPRT)/6-THIOGUANINE, Metabolic Activation: RAT, LIVER, S-9, AROCLOR 1254): inactive; negative
mutagenic call (Test System: E. COLI, Strain/Indicator: DG1669, Metabolic Activation: NONE, Method: STANDARD PLATE): active; positive
mutagenic call (Test System: E. COLI, Strain/Indicator: DG1669, Metabolic Activation: RAT, LIVER, S-9, AROCLOR 1254, Method: STANDARD PLATE): active; positive

NCCc1cc(O)c(O)cc1O
mutagenic call (Test System: AMES SALMONELLA TYPHIMURIUM, Strain/Indicator: TA102, Metabolic Activation: NONE, Method: STANDARD PLATE): active; positive
mutagenic call [5]: active; positive
